pEC50: −log10 of the molar value.
Molecular target: FXR (Homo sapiens (Human), UniProt Q96RI1)
Assay: FXR EC50 (FXR agonist activity reported with each example)
Assay type: cell-based

Sequence of FXR (Q96RI1 262-486): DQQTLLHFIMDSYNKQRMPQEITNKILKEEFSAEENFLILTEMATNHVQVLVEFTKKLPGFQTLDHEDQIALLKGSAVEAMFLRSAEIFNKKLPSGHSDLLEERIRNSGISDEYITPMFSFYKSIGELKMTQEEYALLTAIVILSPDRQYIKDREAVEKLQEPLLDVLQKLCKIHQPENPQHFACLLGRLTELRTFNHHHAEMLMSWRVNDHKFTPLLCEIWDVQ

| Compound | pEC50 |
| --- | --- |
| O=C(O)c1ccc(-c2noc(C34CCC(OCc5c(-c6ccccc6C(F)(F)F)noc5C5CC5)(CC3)CC4)n2)cn1 [Example 46] | 5.57 |
| O=C(O)c1cccc(-c2noc(C34CCC(OCc5c(-c6ccccc6OC(F)(F)F)noc5C5CC5)(CC3)CC4)n2)n1 [Example 47] | 6.26 |
| O=C(O)c1cccc(-c2noc(C34CCC(OCc5c(-c6ccccc6C(F)(F)F)noc5C5CC5)(CC3)CC4)n2)n1 [Example 48] | 5.68 |
| O=C(O)c1cc(-c2noc(C34CCC(OCc5c(-c6ccccc6OC(F)(F)F)noc5C5CC5)(CC3)CC4)n2)ccn1 [Example 49] | 5.92 |
| O=C(O)c1cc(-c2noc(C34CCC(OCc5c(-c6ccccc6C(F)(F)F)noc5C5CC5)(CC3)CC4)n2)ccn1 [Example 50] | 5.68 |
| O=C(O)c1cc(F)c2nc(C34CCC(OCc5c(-c6ccccc6C(F)(F)F)noc5C5CC5)(CC3)CC4)sc2c1 [Example 51] | 6.30 |
| O=C(O)c1cccc(-c2nc(C34CCC(OCc5c(-c6ccccc6OC(F)(F)F)noc5C5CC5)(CC3)CC4)no2)c1 [Example 55] | 6.60 |
| O=C(O)c1ccc(-c2nc(C34CCC(OCc5c(-c6ccccc6OC(F)(F)F)noc5C5CC5)(CC3)CC4)no2)cc1 [Example 57] | 6.19 |
| O=C(O)c1cc(-c2nc(C34CCC(OCc5c(-c6ccccc6OC(F)(F)F)noc5C5CC5)(CC3)CC4)no2)ccn1 [Example 58] | 5.40 |
| O=C(O)c1cc(-c2nc(C34CCC(OCc5c(-c6ccccc6C(F)(F)F)noc5C5CC5)(CC3)CC4)no2)ccn1 [Example 59] | 5.42 |
| O=C(O)c1cccc(-c2nc(C34CCC(OCc5c(-c6ccccc6OC(F)(F)F)noc5C5CC5)(CC3)CC4)no2)n1 [Example 61] | 6.08 |
| O=C(O)c1ccc2nc(C34CCC(OCc5c(-c6ccccc6OC(F)(F)F)noc5C5CC5)(CC3)CC4)ncc2c1 [Example 62] | 5.89 |
| O=C(O)c1cc(-c2noc(C34CCC(OCc5c(-c6c(Cl)cccc6Cl)noc5C5CC5)(CC3)CC4)n2)ccc1F [Example 64, 5-(5-(4-((5-Cyclopropyl-3-(2,6-dichlorophenyl)isoxazol-4-yl)methoxy)bicyclo[2.2.2]octan-1-yl)-1,2,4-oxadiazol-3-yl)-2-fluorobenzoic acid] | 6.85 |
| Clc1cccc(Cl)c1-c1noc(C2CC2)c1COC12CCC(c3nc4ccc(-c5nnn[nH]5)cc4s3)(CC1)CC2 [Example 66, 4-(((4-(6-(1H-tetrazol-5-yl)benzo[d]thiazol-2-yl)bicyclo[2.2.2]octan-1-yl)oxy)methyl)-5-cyclopropyl-3-(2,6-dichlorophenyl)isoxazole] | 6.41 |
| O=C(O)c1c(F)ccc(-c2noc(C34CCC(OCc5c(-c6c(Cl)cccc6Cl)noc5C5CC5)(CC3)CC4)n2)c1F [Example 68, 3-(5-(4-((5-Cyclopropyl-3-(2,6-dichlorophenyl)isoxazol-4-yl)methoxy)bicyclo[2.2.2]octan-1-yl)-1,2,4-oxadiazol-3-yl)-2,6-difluorobenzoic acid] | 6.60 |
| COc1ccc(-c2noc(C34CCC(OCc5c(-c6c(Cl)cncc6Cl)noc5C5CC5)(CC3)CC4)n2)cc1C(=O)O [Example 69, 5-(5-(4-((5-Cyclopropyl-3-(3,5-dichloropyridin-4-yl)isoxazol-4-yl)methoxy)bicyclo[2.2.2]octan-1-yl)-1,2,4-oxadiazol-3-yl)-2-methoxybenzoic acid] | 7.25 |
| Cn1nc(-c2nc(C34CCC(OCc5c(-c6c(Cl)cccc6Cl)noc5C5CC5)(CC3)CC4)no2)cc1C(=O)O [Example 70, 3-(3-(4-((5-Cyclopropyl-3-(2,6-dichlorophenyl)isoxazol-4-yl)methoxy)bicyclo[2.2.2]octan-1-yl)-1,2,4-oxadiazol-5-yl)-1-methyl-1H-pyrazole-5-carboxylic acid] | 6.37 |
| O=C(O)c1cccc(-c2noc(C34CCC(OCc5c(-c6c(Cl)cncc6Cl)noc5C5CC5)(CC3)CC4)n2)c1F [Example 71, 3-(5-(4-((5-Cyclopropyl-3-(3,5-dichloropyridin-4-yl)isoxazol-4-yl)methoxy)bicyclo[2.2.2]octan-1-yl)-1,2,4-oxadiazol-3-yl)-2-fluorobenzoic acid] | 7.16 |
| O=C(O)Cc1noc(C23CCC(OCc4c(-c5c(Cl)cccc5Cl)noc4C4CC4)(CC2)CC3)n1 [Example 72, 2-(5-(4-((5-cyclopropyl-3-(2,6-dichlorophenyl)isoxazol-4-yl)methoxy)bicyclo[2.2.2]octan-1-yl)-1,2,4-oxadiazol-3-yl)acetic acid] | 5.51 |
| OCc1noc(C23CCC(OCc4c(-c5c(Cl)cccc5Cl)noc4C4CC4)(CC2)CC3)n1 [Example 73, (5-(4-((5-cyclopropyl-3-(2,6-dichlorophenyl)isoxazol-4-yl)methoxy)bicyclo[2.2.2]octan-1-yl)-1,2,4-oxadiazol-3-yl)methanol] | 6.22 |

| Compound | pEC50 |
| --- | --- |
| NC(=O)c1noc(C23CCC(OCc4c(-c5c(Cl)cccc5Cl)noc4C4CC4)(CC2)CC3)n1 [Example 74, 5-(4-((5-cyclopropyl-3-(2,6-dichlorophenyl)isoxazol-4-yl)methoxy)bicyclo[2.2.2]octan-1-yl)-1,2,4-oxadiazole-3-carboxamide] | 6.28 |
| O=C(O)c1cnn(CC23CCC(OCc4c(-c5c(Cl)cccc5Cl)noc4C4CC4)(CC2)CC3)c1 [Example 76, 1-((4-((5-cyclopropyl-3-(2,6-dichlorophenyl)isoxazol-4-yl)methoxy)bicyclo[2.2.2]octan-1-yl)methyl)-1H-pyrazole-4-carboxylic acid] | 6.54 |
| O=C(O)c1cccc(OCC23CCC(OCc4c(-c5ccccc5OC(F)(F)F)noc4C4CC4)(CC2)CC3)c1 [Example 77] | 6.74 |
| O=C(O)c1cc(F)c2nc(OCC34CCC(OCc5c(-c6ccccc6OC(F)(F)F)noc5C5CC5)(CC3)CC4)sc2c1 [Example 79] | 6.89 |
| O=C(O)[C@@H]1CCC[C@H](OCC23CCC(OCc4c(-c5ccccc5OC(F)(F)F)noc4C4CC4)(CC2)CC3)C1 [Example 80] | 5.29 |
| O=C(O)[C@@H]1CCC[C@H](OCC23CCC(OCc4c(-c5ccccc5OC(F)(F)F)noc4C4CC4)(CC2)CC3)C1 [Example 81] | 5.33 |
| O=C(O)c1cccc(OCC23CCC(OCc4c(-c5c(Cl)cccc5Cl)noc4C4CC4)(CC2)CC3)c1 [Example 82, 3-((4-((5-cyclopropyl-3-(2,6-dichlorophenyl)isoxazol-4-yl)methoxy)bicyclo[2.2.2]octan-1-yl)methoxy) benzoic acid] | 7.66 |
| O=C(O)c1cc(F)c2nc(OCC34CCC(OCc5c(-c6c(Cl)cccc6Cl)noc5C5CC5)(CC3)CC4)sc2c1 [Example 83, 2-((4-((5-cyclopropyl-3-(2,6-dichlorophenyl)isoxazol-4-yl)methoxy)bicyclo[2.2.2]octan-1-yl)methoxy)-4-fluorobenzo[d]thiazole-6-carboxylic acid] | 7.74 |
| Cn1cc(C(=O)O)c2ccc(OCC34CCC(OCc5c(-c6ccccc6OC(F)(F)F)noc5C5CC5)(CC3)CC4)cc21 [Example 84] | 6.49 |
| O=C(O)c1cccc(NCC23CCC(OCc4c(-c5ccccc5OC(F)(F)F)noc4C4CC4)(CC2)CC3)c1 [Example 85] | 6.21 |
| N#Cc1cccc(OCC23CCC(OCc4c(-c5c(Cl)cccc5Cl)noc4C4CC4)(CC2)CC3)c1 [Example 88, 3-((4-((5-cyclopropyl-3-(2,6-dichlorophenyl)isoxazol-4-yl)methoxy)bicyclo[2.2.2]octan-1-yl)methoxy)benzonitrile] | 6.02 |
| Clc1cccc(Cl)c1-c1noc(C2CC2)c1COC12CCC(COc3cccc(-c4nn[nH]n4)c3)(CC1)CC2 [Example 89, 4-((4-((3-(2H-tetrazol-5-yl)phenoxy)methyl)bicyclo[2.2.2]octan-1-yloxy)methyl)-5-cyclopropyl-3-(2,6-dichlorophenyl)isoxazole] | 6.92 |
| Cn1cc(C(=O)O)c2ccc(OCC34CCC(OCc5c(-c6c(Cl)cccc6Cl)noc5C5CC5)(CC3)CC4)cc21 [Example 90, 6-((4-((5-cyclopropyl-3-(2,6-dichlorophenyl)isoxazol-4-yl)methoxy)bicyclo[2.2.2]octan-1-yl)methoxy)-1-methyl-1H-indole-3-carboxylic acid] | 7.96 |
| O=C(O)c1cccc(OCC23CCC(OCc4c(-c5c(Cl)cncc5Cl)noc4C4CC4)(CC2)CC3)c1 [Example 91, 3-((4-((5-cyclopropyl-3-(3,5-dichloropyridin-4-yl)isoxazol-4-yl)methoxy)bicyclo[2.2.2]octan-1-yl)methoxy) benzoic acid] | 7.48 |
| O=C(O)c1ccc(F)c(OCC23CCC(OCc4c(-c5c(Cl)cccc5Cl)noc4C4CC4)(CC2)CC3)c1 [Example 92, 3-((4-((5-cyclopropyl-3-(2,6-dichlorophenyl)isoxazol-4-yl)methoxy)bicyclo[2.2.2]octan-1-yl)methoxy)-4-fluorobenzoic acid] | 7.64 |
| O=C(O)c1cc(OCC23CCC(OCc4c(-c5c(Cl)cccc5Cl)noc4C4CC4)(CC2)CC3)ccc1F [Example 93, 5-((4-((5-cyclopropyl-3-(2,6-dichlorophenyl)isoxazol-4-yl)methoxy)bicyclo[2.2.2]octan-1-yl)methoxy)-2-fluorobenzoic acid] | 7.49 |
| O=C(O)c1cc(F)cc(OCC23CCC(OCc4c(-c5c(Cl)cccc5Cl)noc4C4CC4)(CC2)CC3)c1 [Example 94, 3-((4-((5-cyclopropyl-3-(2,6-dichlorophenyl)isoxazol-4-yl)methoxy)bicyclo[2.2.2]octan-1-yl)methoxy)-5-fluorobenzoic acid] | 7.74 |
| Cc1c(OCC23CCC(OCc4c(-c5c(Cl)cccc5Cl)noc4C4CC4)(CC2)CC3)cccc1C(=O)O [Example 95, 3-((4-((5-cyclopropyl-3-(2,6-dichlorophenyl)isoxazol-4-yl)methoxy)bicyclo[2.2.2]octan-1-yl)methoxy)-2-methylbenzoic acid] | 6.40 |
| O=C(O)c1cccc(OCC23CCC(OCc4c(-c5c(Cl)cccc5Cl)noc4C4CC4)(CC2)CC3)c1F [Example 96, 3-((4-((5-cyclopropyl-3-(2,6-dichlorophenyl)isoxazol-4-yl)methoxy)bicyclo[2.2.2]octan-1-yl)methoxy)-2-fluorobenzoic acid] | 6.92 |
